Experiments:
[1] = test system: IL-6 secretion in senescent cells; assay: IL-6 ELISA on conditioned media of IR-induced senescent cells treated with COX-2/ALOX5 inhibitors; assay type: cell-based, human; settings: SEN(IR) IMR-90, inhibitor for 10 days
Procedure: (§1) Human fetal lung fibroblasts (IMR-90) were cultured in Dulbecco's modified eagle medium (DMEM) supplemented with 10% FBS and penicillin/streptomycin. LL 29 (AnHa) cells were obtained from the ATCC and growth to confluence using the ATCC protocol, but were subcultured as described for IMR-90 before initiation of all experiments. Quiescence was induced by replacing culture media with media containing 0.2% FBS. MCF-7 and MDA-MB-231 breast cancer cells were cultured in RPMI supplemented with 10% FBS and penicillin/streptomycin. All cells were cultured at 3% O2, and used between 25 and 40 population doublings. All cells were mycoplasma free.
Senescence was induced by irradiation with 10 Gy of ionizing radiation. Non-senescent controls (proliferating or quiescent) were placed in the irradiator for an identical period of time without turning on the irradiator. Oncogene-induced senescence was induced via lentiviral overexpression of HRAS^V12, as described previously (Wiley et al. (2016) Cell Metab. 23: 303-314).
3×10^4 cells in 12-well plates were treated as indicated in the text, and cultured in 0.5-1 ml serum-free DMEM for 24 hr. CM were collected and clarified at 2,000×g for 10 min. Supernatants were transferred to a tube; cells were trypsinized and counted. CM (2.5 μl) were analyzed by bead-based ELISAs (AlphaLISA, Perkin-Elmer) as instructed by the manufacturer and normalized to cell number.

IMR-90 fibroblasts = assay type: cell-based, human
Procedure: as §1
RNA was extracted from cells or tissues using commercially available kits (Isolate II—Bioline for cells; Direct-zol—Zymo for tissues) according to the manufacturer's instructions. cDNA synthesis was performed using a High Capacity cDNA Reverse Transcription Kit (Thermo Fisher) according to the manufacturer's instructions. Quantitative PCR was performed on a LightCycler 480 II (Roche) using primers and probes designed for the Universal Probe Library. Primers and probes used for human transcripts were ACTB: 5′-CCAACCGCGAGAAGATGA (SEQ ID NO:1), 5′-TCCATCACGATGCCAGTG (SEQ ID NO:2), Probe #64; TUBA: 5′-cttcgtctccgccatcag (SEQ ID NO:3), 5′-ttgccaatctggacacca (SEQ ID NO:4), Probe #58; ALOX5: 5′-[…] (SEQ ID NO:5), 5′-[…] (SEQ ID NO:6), Probe #64; ALOX5AP: 5′-ggtctgcggggctacttt (SEQ ID NO:7), 5′-[…] (SEQ ID NO:8), Probe #18; ALOX12: 5′-[…] (SEQ ID NO:9), 5′-agccaggtcgtcaggag (SEQ ID NO:10), Probe #32; ALOX15: 5′-[…] (SEQ ID NO:11), 5′-[…] (SEQ ID NO:12), Probe #76; ALOX15B: 5′-[…] (SEQ ID NO:13), 5′-actgggaggcgaagaagg (SEQ ID NO:14), Probe #51; AKR1C1: 5′-catgcctgtcctgggattt (SEQ ID NO:15), 5′-[…] (SEQ ID NO:16), Probe #49; AKR1C2: 5′-ctatgcgcctgcagaggt (SEQ ID NO:17), 5′-[…] (SEQ ID NO:18), Probe #31; AKR1C3: 5′-[…] (SEQ ID NO:19), 5′-[…] (SEQ ID NO:20), Probe #78; CYSLTR2: 5′-[…] (SEQ ID NO:21), 5′-[…] (SEQ ID NO:22), Probe #18; DPEP1: 5′-gacgtcctgaggctggtg (SEQ ID NO:23), 5′-[…] (SEQ ID NO:24), Probe #9 (SEQ ID NO:25), ELOVL2: 5′-[…] (SEQ ID NO:26), 5′-[…] (SEQ ID NO:27), Probe #53; ELOVL4: 5′-catttggcccatggattc (SEQ ID NO:28), 5′-[…] (SEQ ID NO:29), Probe #31; ELOVL5: 5′-cccttccatgcgtccata (SEQ ID NO:30), 5′-[…] (SEQ ID NO:31), Probe #31; EPHX2: 5′-ttctgctggacaccctgaa (SEQ ID NO:32), 5′-[…] (SEQ ID NO:33), Probe #45; GPX4: 5′-ttcccgtgtaaccagttcg (SEQ ID NO:34), 5′-[…] (SEQ ID NO:35), Probe #36; LTA4H: 5′-ctgctctcacggtccagtc (SEQ ID NO:36), 5′-[…] (SEQ ID NO:37), Probe #64; LTBR2: 5′-[…] (SEQ ID NO:38), 5′-[…] (SEQ ID NO:39), Probe #33; LTC4S: 5′-[…] (SEQ ID NO:40), 5′-[…] (SEQ ID NO:41), Probe #18; PTGDS: 5′-[…] (SEQ ID NO:42), 5′-[…] (SEQ ID NO:43), Probe #36; PTGES: 5′-agagatgcctgcccacag (SEQ ID NO:44), 5′-tggccaccacgtacatctt (SEQ ID NO:45), Probe #4; PTGES2: 5′-[…] (SEQ ID NO:46), 5′-[…] (SEQ ID NO:47), Probe #49; PTGES3 (SEQ ID NO:48), 5′-[…] (SEQ ID NO:49), 5′-[…] (SEQ ID NO:50), Probe #48; PTGIS: 5′-[…] (SEQ ID NO:51), 5′-[…] (SEQ ID NO:52), Probe #45; PTGR1: 5′-atgatggggcagcaagtg (SEQ ID NO:53), 5′-cccatcagaaatggagtgc (SEQ ID NO:54), Probe #64; PTGS1: 5′-[…] (SEQ ID NO:55), 5′-gtggtggtccatgttcctg (SEQ ID NO:56), Probe #81; PTGS2: 5′-gatccccagggctcaaac (SEQ ID NO:57), 5′-[…] (SEQ ID NO:58), Probe #61; TBXAS1: 5′-[…] (SEQ ID NO:59), 5′-tgcctcccgtgtgaatct (SEQ ID NO:60), Probe #73; AREG: 5′-[…] (SEQ ID NO:61), 5′-[…] (SEQ ID NO:62), Probe #73; CCL2: 5′-AGTCTCTGCCGCCCTTCT (SEQ ID NO:63), 5′-GTGACTGGGGCATTGATTG (SEQ ID NO:64), Probe #40; CCL27: 5′-[…] (SEQ ID NO:65), 5′-gctgggtggcagtaggaat (SEQ ID NO:66), Probe #18; CXCL1: 5′-[…] (SEQ ID NO:67), 5′-[…] (SEQ ID NO:68), Probe #52; HGF: 5′-[…] (SEQ ID NO:69), 5′-[…]

growth of non-senescent cells (IMR-90 fibroblasts): retarded growth
Structure (SMILES): CC(/C=C/c1cccc(Oc2ccc(F)cc2)c1)N(O)C(N)=O (centres unmarked) [BW-B70C]
lowered IL-6 secretion in senescent cells [1]: ~50%
